In general, pIC50 refers to −log10 of the IC50, conventionally taken in molar units.

SMILES strings stand for the structures. pIC50: −log10 of the molar value. Bounds are passed on as bounds.

These results are taken from patent publication US7943629B2, “Sulphimides as protein kinase inhibitors” (Bayer Schering Pharma AG, priority 2006, dated 2011).

The target in assay [1] is T1, Aurora-C (Homo sapiens, UniProt Q9UQB9).
T1 construct: made in house; host or cells: transiently transfected HEK293 cells
T1 sequence (Q9UQB9 1-309): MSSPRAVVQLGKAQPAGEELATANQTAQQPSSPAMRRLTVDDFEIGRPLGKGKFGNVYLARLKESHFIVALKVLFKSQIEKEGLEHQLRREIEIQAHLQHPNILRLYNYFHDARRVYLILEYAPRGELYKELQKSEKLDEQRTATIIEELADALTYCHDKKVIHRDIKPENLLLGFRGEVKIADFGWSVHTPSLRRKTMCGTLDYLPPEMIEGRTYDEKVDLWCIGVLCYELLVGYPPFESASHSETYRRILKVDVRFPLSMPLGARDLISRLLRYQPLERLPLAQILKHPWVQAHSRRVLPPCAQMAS
Description: Aurora-C kinase assay. Particulars: for pIC50: 3 μM ATP, 22° C., 90 min; for inhibition of Aurora C kinase (in words): summary of Tab. 1. It is filed as biochemical. The protocol: Recombinant Aurora-C protein was expressed in transiently transfected HEK293 cells and then purified. The kinase substrate used was the biotinylated peptide having the amino acid sequence biotin-FMRLRRLSTKYRT, which was purchased from Jerini AG in Berlin.
Aurora-C [5 nM in the test mixture, test volume 5 μl] was incubated in the presence of various concentrations of test substances (0 μM and 10 measurement points within the range 0.001-20 μM in duplicate) in assay buffer [25 mM HEPES pH 7.4, 0.5 mM MnCl2, 0.1 mM Na ortho-vanadate, 2.0 mM dithiothreitol, 0.05% bovine serum albumin (BSA), 0.01% Triton X-100, 3 μM adenosine trisphosphate (ATP), 0.67 nCi/μl gamma-^33P-ATP, 2.0 μM substrate peptide biotin-FMRLRRLSTKYRT, 1.0% dimethyl sulphoxide] at 22° C. for 90 min. The reaction was stopped by adding 12.5 μl of an EDTA/detection solution [16 mM EDTA, 40 mM ATP, 0.08% Triton X-100, 4 mg/ml PVT streptavidin SPA beads (from Amersham)]. After incubation for 10 minutes, the SPA beads were pelleted by centrifugation at 1000×G for 10 minutes. Measurement took place in a PerkinElmer Topcount scintillation counter. The measured data were normalized to 0% inhibition (enzyme reaction without inhibitor) and 100% inhibition (enzyme reaction in the presence of 0.1 μM staurosporine (from Sigma)). The IC50 values were determined by means of a 4-parameter fit using the company's own software.

Assay [2] concerns the target T2, CDK1/CycB (Homo sapiens, UniProt P06493).
T2 construct: GST; purchased ProQinase GmbH, Freiburg; host or cells: baculovirus-infected insect cells (Sf9)
Briefly: CDK1/CycB kinase assay. It is filed as biochemical. Particulars: 0.5 μM ATP, histone IIIS, 22° C., 10 min. The protocol:
Recombinant CDK1- and CycB-GST fusion proteins, purified from baculovirus-infected insect cells (Sf9), were purchased from ProQinase GmbH, Freiburg. The histone IIIS used as kinase substrate can be purchased from Sigma. CDK1/CycB (200 ng/measurement point) was incubated in the presence of various concentrations of test substances (0 μM, and within the range 0.01-100 μM) in assay buffer [50 mM Tris/HCl pH 8.0, 10 mM MgCl2, 0.1 mM Na ortho-vanadate, 1.0 mM dithiothreitol, 0.5 μM ATP, 10 μg/measurement point histone IIIS, 0.2 μCi/measurement point ^33P-gamma-ATP, 0.05% NP40, 1.25% dimethyl sulphoxide] at 22° C. for 10 min. The reaction was stopped by adding EDTA solution (250 mM, pH 8.0, 15 μl/measurement point).
15 μl of each reaction mixture were loaded onto P30 filter strips (from Wallac), and non-incorporated ^33P-ATP was removed by washing the filter strips three times in 0.5% strength phosphoric acid for 10 min each time. After the filter strips had been dried at 70° C. for 1 hour, the filter strips were covered with scintillator strips (MeltiLex™ A, from Wallac) and baked at 90° C. for 1 hour. The amount of incorporated ^33P (substrate phosphorylation) was determined by scintillation measurement in a gamma radiation counter (Wallac).

Assay [3] has as its target T3, CDK2/CycE (Homo sapiens, UniProt P24941).
T3 construct: GST; purchased ProQinase GmbH, Freiburg; host or cells: baculovirus-infected insect cells (Sf9)
Briefly: CDK2/CycE kinase assay. Format: biochemical. Particulars: for pIC50: 0.5 μM ATP, histone IIIS, 22° C., 10 min; for inhibition of CDK2 kinase (in words): summary of Tab. 1. How it is done:
Recombinant CDK2- and CycE-GST fusion proteins, purified from baculovirus-infected insect cells (Sf9), were purchased from ProQinase GmbH, Freiburg. The histone IIIS used as kinase substrate was purchased from Sigma.
CDK2/CycE (50 ng/measurement point) was incubated in the presence of various concentrations of test substances (0 μM, and within the range 0.01-100 μM) in assay buffer [50 mM Tris/HCl pH 8.0, 10 mM MgCl2, 0.1 mM Na ortho-vanadate, 1.0 mM dithiothreitol, 0.5 μM ATP, 10 μg/measurement point histone IIIS, 0.2 μCi/measurement point ^33P-gamma-ATP, 0.05% NP40, 1.25% dimethyl sulphoxide] at 22° C. for 10 min. The reaction was stopped by adding EDTA solution (250 mM, pH 8.0, 15 μl/measurement point).
15 μl of each reaction mixture were loaded onto P30 filter strips (from Wallac), and non-incorporated ^33P-ATP was removed by washing the filter strips three times in 0.5% strength phosphoric acid for 10 min each time.
After the filter strips had been dried at 70° C. for 1 hour, the filter strips were covered with scintillator strips (MeltiLex™ A, from Wallac) and baked at 90° C. for 1 hour. The amount of incorporated ^33P (substrate phosphorylation) was determined by scintillation measurement in a gamma radiation counter (Wallac).

Assay [4] concerns the target T4, KDR (VEGFR2) (Homo sapiens, UniProt P35968).
T4 construct: made in house; host or cells: E. coli
Briefly: KDR kinase assay. Particulars: 10 μM ATP, 22° C., 45 min, HTRF. It is filed as biochemical. How it is done:
Recombinant KDR protein was expressed in E. coli and then purified. The kinase substrate used was the biotinylated peptide having the amino acid sequence biotin-DFGLARDMYDKEYYSVG, which was purchased from Biosynthan. KDR [test volume 5 μl] was incubated in the presence of various concentrations of test substances (0 μM, and 10 measurement points within the range 0.001-20 μM in duplicate) in assay buffer [50 mM HEPES pH 7.0, 25.0 mM MgCl2, […], 0.1 mM Na ortho-vanadate, 1.0 mM dithiothreitol, 0.001% NP40, 10 μM ATP, 0.03 μM substrate peptide […], 1.0% dimethyl sulphoxide] at 22° C. for 45 min. The reaction was stopped by adding 5 μl of an EDTA/detection solution [50 mM HEPES pH 7.5, 125 mM EDTA, 0.2% BSA, 0.1 μM streptavidin-XLent (from CisBio), 2 nM PT66-Eu (from PerkinElmer)]. The fluorescence emission at 620 nm and 665 nm after excitation with light of the wavelength 350 nm was measured in a Rubystar HTRF instrument from BMG Labsystems.
The measured data (ratio of emission 665 divided by emission 620 multiplied by 10 000) were normalized to 0% inhibition (enzyme reaction without inhibitor) and 100% inhibition (all assay components apart from enzyme). The IC50 values were determined by means of a 4-parameter fit using the company's own software.

Assay [5] concerns MCF7 breast tumour cells. Description: MCF7 proliferation assay. Format: cell-based, human. As to conditions: for pIC50: Homo sapiens, MCF7, 96 h, 4 days incubation, crystal violet staining; for antiproliferative activity, MCF7 (in words): summary of Tab. 2. How it is done:
Cultivated human MCF7 breast tumour cells (ATCC HTB-22) were plated out in a density of 5000 cells/measurement point in 200 μl of growth medium (RPMI1640, 10% foetal calf serum, 2 mU/mL insulin, 0.1 nM oestradiol) in a 96-well multititre plate. After 24 hours, the cells from a plate (zero plate) were stained with crystal violet (see below), while the medium in the other plates was replaced by fresh culture medium (200 μl) to which the test substances had been added in various concentrations (0 μM, and in the range 0.1-30 μM; the final concentration of the solvent dimethyl sulphoxide was 0.5%). The cells were incubated in the presence of the test substances for 4 days. The cell proliferation was determined by staining the cells with crystal violet: the cells were fixed by adding 20 μl/measurement point of an 11% strength glutaraldehyde solution at room temperature for 15 min. After the fixed cells had been washed three times with water, the plates were dried at room temperature. The cells were stained by adding 100 μl/measurement point of a 0.1% strength crystal violet solution (pH adjusted to pH 3 by adding acetic acid). After the stained cells had been washed three times with water, the plates were dried at room temperature. The dye was dissolved by adding 100 μl/measurement point of a 10% strength acetic acid solution, and the extinction was determined by photometry at a wavelength of 595 nm. The percentage change in cell growth was calculated by normalizing the measurements to the extinctions of the zero point plate (=0%) and the extinction of the untreated (0 μM) cells (=100%). The IC50 values were determined by means of a 4-parameter fit using the company's own software.

T4 sequence (P35968 20-1356, species assumed): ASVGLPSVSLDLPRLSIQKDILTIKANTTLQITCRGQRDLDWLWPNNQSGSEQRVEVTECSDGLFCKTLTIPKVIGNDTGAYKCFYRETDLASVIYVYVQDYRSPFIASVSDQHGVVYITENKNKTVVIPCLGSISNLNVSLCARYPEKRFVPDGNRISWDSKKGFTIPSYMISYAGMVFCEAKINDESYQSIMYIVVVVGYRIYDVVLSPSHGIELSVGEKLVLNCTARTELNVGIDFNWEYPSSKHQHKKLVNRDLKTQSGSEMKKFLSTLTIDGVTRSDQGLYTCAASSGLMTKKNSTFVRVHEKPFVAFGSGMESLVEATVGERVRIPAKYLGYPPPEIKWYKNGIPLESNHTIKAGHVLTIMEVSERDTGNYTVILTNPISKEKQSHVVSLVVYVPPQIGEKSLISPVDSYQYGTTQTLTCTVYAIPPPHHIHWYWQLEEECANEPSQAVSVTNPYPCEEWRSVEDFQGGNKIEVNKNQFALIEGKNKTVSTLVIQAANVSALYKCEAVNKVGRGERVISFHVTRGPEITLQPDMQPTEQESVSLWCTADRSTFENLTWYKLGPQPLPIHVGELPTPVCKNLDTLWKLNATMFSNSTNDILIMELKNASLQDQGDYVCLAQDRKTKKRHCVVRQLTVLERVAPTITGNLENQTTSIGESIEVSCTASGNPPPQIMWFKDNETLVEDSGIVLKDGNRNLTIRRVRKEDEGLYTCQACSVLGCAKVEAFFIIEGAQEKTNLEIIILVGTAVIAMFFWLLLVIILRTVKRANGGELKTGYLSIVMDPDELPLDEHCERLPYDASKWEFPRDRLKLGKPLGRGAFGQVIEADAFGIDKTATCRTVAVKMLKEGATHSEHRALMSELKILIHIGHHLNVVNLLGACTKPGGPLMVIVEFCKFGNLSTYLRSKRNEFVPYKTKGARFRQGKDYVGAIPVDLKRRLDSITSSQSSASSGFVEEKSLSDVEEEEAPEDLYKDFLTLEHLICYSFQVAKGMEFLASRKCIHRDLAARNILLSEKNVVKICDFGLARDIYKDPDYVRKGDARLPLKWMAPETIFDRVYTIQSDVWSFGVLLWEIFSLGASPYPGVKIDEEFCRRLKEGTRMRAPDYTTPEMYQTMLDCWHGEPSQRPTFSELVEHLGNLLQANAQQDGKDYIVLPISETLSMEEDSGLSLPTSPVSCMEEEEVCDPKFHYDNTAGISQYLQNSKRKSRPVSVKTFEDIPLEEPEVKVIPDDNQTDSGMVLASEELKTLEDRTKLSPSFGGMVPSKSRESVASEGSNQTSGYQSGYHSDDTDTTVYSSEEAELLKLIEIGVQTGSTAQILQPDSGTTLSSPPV
T2 sequence (P06493 whole entry): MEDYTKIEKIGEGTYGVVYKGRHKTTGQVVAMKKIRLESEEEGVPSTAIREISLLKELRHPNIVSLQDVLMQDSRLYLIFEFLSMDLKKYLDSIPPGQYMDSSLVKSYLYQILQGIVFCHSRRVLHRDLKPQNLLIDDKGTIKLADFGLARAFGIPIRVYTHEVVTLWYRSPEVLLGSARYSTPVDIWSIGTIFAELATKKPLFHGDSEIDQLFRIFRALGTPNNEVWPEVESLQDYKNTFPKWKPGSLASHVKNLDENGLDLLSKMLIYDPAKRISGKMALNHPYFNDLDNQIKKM
T2 sequence (P14635 whole entry partner): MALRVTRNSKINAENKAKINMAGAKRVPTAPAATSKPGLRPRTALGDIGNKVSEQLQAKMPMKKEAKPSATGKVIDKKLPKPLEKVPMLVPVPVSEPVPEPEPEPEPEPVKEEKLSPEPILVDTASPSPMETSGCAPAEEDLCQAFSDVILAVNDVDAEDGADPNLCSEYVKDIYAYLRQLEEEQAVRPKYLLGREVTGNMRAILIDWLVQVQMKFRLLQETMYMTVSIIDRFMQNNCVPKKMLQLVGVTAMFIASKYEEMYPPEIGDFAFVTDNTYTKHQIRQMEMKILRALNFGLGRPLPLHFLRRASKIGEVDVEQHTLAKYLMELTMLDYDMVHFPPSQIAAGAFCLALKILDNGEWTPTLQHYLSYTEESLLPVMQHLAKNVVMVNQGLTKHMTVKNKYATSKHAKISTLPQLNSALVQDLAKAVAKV

In the case of `Cc1ccc(S(=O)(=O)N=S(C)c2ccc(Nc3ncc(Br)c(N[C@H](C)CO)n3)cc2)cc1` (mixture of isomers) [Example 8, (RS)—S-{4-[(5-Bromo-4-{[(R)-2-hydroxy-1-methylethyl]amino}pyrimidin-2-yl)-amino]phenyl}-S-methyl-N-(tolylsulphonyl)sulphimide], the pIC50 is 6.44 in assay [1]; 6.21 in assay [2]; 7.00 in assay [3]; 7.66 in assay [4]; 6.05 in assay [5]. Also, in assay [1], the “inhibition of Aurora C kinase (in words)” value was “inhibits”.

Regarding `Cc1ccc(S(=O)(=O)N=S(C)c2ccc(Nc3ncc(Br)c(N[C@H](C)C(C)(C)O)n3)cc2)cc1` (mixture of isomers) [Example 9, (RS)—S-{4-[(5-Bromo-4-{[(R)-2-hydroxy-1,2-dimethylpropyl]amino}pyrimidin-2-yl)amino]phenyl}-S-methyl-N-(tolylsulphonyl)sulphimide], the pIC50 was 6.44 in assay [1]; 6.82 in assay [2]; 7.55 in assay [3]; 7.44 in assay [4]; above 7.00 in assay [5]. The “inhibition of CDK2 kinase (in words)” value in assay [3] is given as “shows inhibition”. Moreover, the “antiproliferative activity, MCF7 (in words)” value (shortened to “antiproliferative activity”) in assay [5] was “excellent antiproliferative activity”.

Turning to `C[C@@H](Nc1nc(Nc2ccc(S(C)=NS(=O)(=O)c3cnccc3Cl)cc2)ncc1Br)C(C)(C)O` (mixture of isomers) [Example 11, (RS)—S-{4-[(5-Bromo-4-{[(R)-2-hydroxy-1,2-dimethylpropyl]amino}pyrimidin-2-yl)amino]phenyl}-N-[(4-chloro-3-pyridyl)sulphonyl]-S-methylsulphimide], the pIC50 in assay [1] was 6.43; in assay [2], 7.05; in assay [3], 7.85; in assay [4], 7.36; in assay [5], above 7.00. Also, the “inhibition of Aurora C kinase (in words)” value in assay [1] is “active”. Further, the “inhibition of CDK2 kinase (in words)” value in assay [3] is “active”.

Take `COc1ccc(S(=O)(=O)N=S(C)c2ccc(Nc3ncc(Br)c(N[C@H](C)C(C)(C)O)n3)cc2)cc1` (mixture of isomers) [Example 12, (RS)—S-{4-[(5-Bromo-4-{[(R)-2-hydroxy-1,2-dimethylpropyl]amino}pyrimidin-2-yl)amino]phenyl}-N-[(4-methoxyphenyl)sulphonyl]-S-methylsulphimide]: the pIC50 in assay [1] was 6.32; in assay [2], 6.80; in assay [3], 7.41; in assay [4] it was 7.42; in assay [5] it was 6.70.

With `C[C@@H](Nc1nc(Nc2ccc(S(C)=NS(=O)(=O)Cc3ccccc3)cc2)ncc1Br)C(C)(C)O` (mixture of isomers) [Example 13, (RS)—N—(Benzylsulphonyl)-S-{4-[(5-bromo-4-{[(R)-2-hydroxy-1,2-dimethylpropyl]-amino}pyrimidin-2-yl)amino]phenyl}-S-methylsulphimide], the pIC50 in assay [1] is 6.18; in assay [2], 6.85; in assay [3], 7.55; in assay [4], 7.82; in assay [5], 6.96. Also, the “antiproliferative activity” value in assay [5] is listed as “excellent antiproliferative activity”.

`C[C@@H](Nc1nc(Nc2ccc(S(C)=NS(=O)(=O)C(F)(F)F)cc2)ncc1Br)C(C)(C)O` (mixture of isomers) [Example 14, (RS)—S-{4-[(5-Bromo-4-{[(R)-2-hydroxy-1,2-dimethylpropyl]amino}pyrimidin-2-yl)amino]phenyl}-S-methyl-N-[(trifluoromethyl)sulphonyl]sulphimide]: the pIC50 is 6.00 in assay [1]; 6.92 in assay [2]; 7.41 in assay [3]; 7.15 in assay [4]; 6.96 in assay [5]. Besides, in assay [5], the “antiproliferative activity” value is given as “excellent antiproliferative activity”.
